Ki data for 3 molecules are collected here from BindingDB's records for doi:10.1016/S0960-894X(01)80767-8 (1993).

SMILES strings stand for the structures.

As usually defined, the Ki is a measure of affinity in units of concentration, obtained from inhibition or displacement.

For this assay, the target named is L-type calcium channel (Cavia porcellus). The assay can be described thus: Displacement of [3H]diltiazem from L-type calcium channel of guinea pig striated muscle.
For the molecule `COc1ccc([C@@H]2Sc3cc(OC)ccc3N(CCN(C)C)C(=O)[C@@H]2OC(C)=O)cc1` [Acetic acid (2S,3S)-5-(2-dimethylamino-ethyl)-8-methoxy-2-(4-methoxy-phenyl)-4-oxo-2,3,4,5-tetrahydro-benzo[b][1,4]thiazepin-3-yl ester], the Ki turned out to be 0.042 µM. Then `COc1ccc([C@@H]2Sc3cc(OC)ccc3N(CCN(C)C)C(=O)[C@@H]2C)cc1` [(2R,3S)-5-(2-Dimethylamino-ethyl)-8-methoxy-2-(4-methoxy-phenyl)-3-methyl-2,3-dihydro-5H-benzo[b][1,4]thiazepin-4-one], with 0.085 µM; and `COc1ccc([C@@H]2Sc3ccccc3N(CCN(C)C)C(=O)[C@@H]2C)cc1` [(2R,3S)-5-(2-Dimethylamino-ethyl)-2-(4-methoxy-phenyl)-3-methyl-2,3-dihydro-5H-benzo[b][1,4]thiazepin-4-one], with 0.54 µM.
